Measurements: patent US20230151025A1, “SUBSTITUTED THIAZOLOPYRIDINES, SALTS THEREOF AND THEIR USE AS HERBICIDALLY ACTIVE SUBSTANCES” (Bayer Aktiengesellschaft, priority 2020, published 2023)

system: Alopecurus myosuroides (ALOMY); test: Herbicidal pre-emergence action (A), 1280 g/ha; assay type: in vivo; conditions: visual grading after ca. 3 weeks vs untreated controls, 100% = plants have died off, 0% = as control plants
In short: (§1)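 Seeds were sown in sandy loam pots (one mono- and one dicot weed per pot) and covered with soil; WP or EC formulations were applied to the soil surface as aqueous suspension/emulsion with 0.5% additive at 600 l water/ha. Damage was scored visually after ca. 3 weeks versus untreated controls (0% = control, 100% = dead).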

SMILES | ALOMY, herbicidal effect in percent (%)
CCc1cc2scnc2nc1-c1ccc(F)cc1F [Example I-030] | 100

system: Amaranthus retroflexus (AMARE); test: Herbicidal pre-emergence action (A), 1280 g/ha; assay type: in vivo; conditions: visual grading after ca. 3 weeks vs untreated controls
In short: as §1

SMILES | herbicidal effect AMARE [%]
CCc1cc2scnc2nc1-c1ccc(F)cc1F [Example I-030] | 90
Fc1ccccc1-c1ccc2scnc2n1 [Example I-036, 5-(2-fluorophenyl)thiazolo[4,5-b]pyridine] | 90

system: Digitaria sanguinalis (DIGSA); test: Herbicidal pre-emergence action (A), 1280 g/ha; assay type: in vivo; conditions: visual grading after ca. 3 weeks vs untreated controls, 100% = plants have died off, 0% = as control plants
In short: as §1

SMILES | DIGSA, herbicidal effect in percent (%)
CCc1cc2scnc2nc1-c1ccc(F)cc1F [Example I-030] | 90

system: Echinochloa crus-galli (ECHCG); test: Herbicidal pre-emergence action (A), 1280 g/ha; assay type: in vivo; conditions: visual grading after ca. 3 weeks vs untreated controls, 100% = plants have died off, 0% = as control plants
In short: as §1

SMILES | ECHCG, herbicidal effect in percent (%)
CCc1cc2scnc2nc1-c1ccc(F)cc1F [Example I-030] | 100
Fc1ccccc1-c1ccc2scnc2n1 [Example I-036, 5-(2-fluorophenyl)thiazolo[4,5-b]pyridine] | 100

system: Kochia scoparia (KCHSC; Bassia scoparia); test: Herbicidal pre-emergence action (A), 1280 g/ha; assay type: in vivo; conditions: visual grading after ca. 3 weeks vs untreated controls
In short: as §1

SMILES | herbicidal effect KCHSC [%]
CCc1cc2scnc2nc1-c1ccc(F)cc1F [Example I-030] | 100

system: Lolium rigidum (LOLRI); test: Herbicidal pre-emergence action (A), 1280 g/ha; assay type: in vivo; conditions: visual grading after ca. 3 weeks vs untreated controls, 100% = plants have died off, 0% = as control plants
In short: as §1

SMILES | LOLRI, herbicidal effect in percent (%)
CCc1cc2scnc2nc1-c1ccc(F)cc1F [Example I-030] | 100
Fc1ccccc1-c1ccc2scnc2n1 [Example I-036, 5-(2-fluorophenyl)thiazolo[4,5-b]pyridine] | 100

system: Matricaria inodora (MATIN); test: Herbicidal pre-emergence action (A), 1280 g/ha; assay type: in vivo; conditions: visual grading after ca. 3 weeks vs untreated controls
In short: as §1

SMILES | herbicidal effect MATIN [%]
CCc1cc2scnc2nc1-c1ccc(F)cc1F [Example I-030] | 100
Fc1ccccc1-c1ccc2scnc2n1 [Example I-036, 5-(2-fluorophenyl)thiazolo[4,5-b]pyridine] | 90

system: Poa annua (POAAN); test: Herbicidal pre-emergence action (A), 1280 g/ha; assay type: in vivo; conditions: visual grading after ca. 3 weeks vs untreated controls, 100% = plants have died off, 0% = as control plants
In short: as §1

SMILES | POAAN, herbicidal effect in percent (%)
CCc1cc2scnc2nc1-c1ccc(F)cc1F [Example I-030] | 100
Fc1ccccc1-c1ccc2scnc2n1 [Example I-036, 5-(2-fluorophenyl)thiazolo[4,5-b]pyridine] | 100

system: Setaria viridis (SETVI); test: Herbicidal pre-emergence action (A), 1280 g/ha; assay type: in vivo; conditions: visual grading after ca. 3 weeks vs untreated controls
In short: as §1

SMILES | herbicidal effect SETVI [%]
CCc1cc2scnc2nc1-c1ccc(F)cc1F [Example I-030] | 100
Fc1ccccc1-c1ccc2scnc2n1 [Example I-036, 5-(2-fluorophenyl)thiazolo[4,5-b]pyridine] | 100

system: Stellaria media (STEME); test: Herbicidal pre-emergence action (A), 1280 g/ha; assay type: in vivo; conditions: visual grading after ca. 3 weeks vs untreated controls
In short: as §1

SMILES | herbicidal effect STEME [%]
CCc1cc2scnc2nc1-c1ccc(F)cc1F [Example I-030] | 90
Fc1ccccc1-c1ccc2scnc2n1 [Example I-036, 5-(2-fluorophenyl)thiazolo[4,5-b]pyridine] | 90

system: Veronica persica (VERPE); test: Herbicidal pre-emergence action (A), 1280 g/ha; assay type: in vivo; conditions: visual grading after ca. 3 weeks vs untreated controls
In short: as §1

SMILES | herbicidal effect VERPE [%]
CCc1cc2scnc2nc1-c1ccc(F)cc1F [Example I-030] | 100

system: Amaranthus retroflexus (AMARE); test: Herbicidal post-emergence action (B), 1280 g/ha; assay type: in vivo; conditions: rated visually after about 3 weeks vs untreated controls
In short: (§2)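 Post-emergence spray, one-leaf stage; WP/EC formulation, aqueous, 0.5% additive, 600 L/ha water. Sandy loam, greenhouse, doubly sown pots. Visual % rating vs untreated control at ~3 weeks (100% = dead).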

SMILES | herbicidal activity AMARE [%]
CCc1cc2scnc2nc1-c1ccc(F)cc1F [Example I-030] | 100
Fc1ccccc1-c1ccc2scnc2n1 [Example I-036, 5-(2-fluorophenyl)thiazolo[4,5-b]pyridine] | 100

system: Digitaria sanguinalis (DIGSA); test: Herbicidal post-emergence action (B), 1280 g/ha; assay type: in vivo; conditions: rated visually after about 3 weeks vs untreated controls
In short: as §2

SMILES | herbicidal activity DIGSA [%]
CCc1cc2scnc2nc1-c1ccc(F)cc1F [Example I-030] | 100

system: Echinochloa crus-galli (ECHCG); test: Herbicidal post-emergence action (B), 1280 g/ha; assay type: in vivo; conditions: rated visually after about 3 weeks vs untreated controls
In short: as §2

SMILES | herbicidal activity ECHCG [%]
CCc1cc2scnc2nc1-c1ccc(F)cc1F [Example I-030] | 100
Fc1ccccc1-c1ccc2scnc2n1 [Example I-036, 5-(2-fluorophenyl)thiazolo[4,5-b]pyridine] | 100

system: Lolium rigidum (LOLRI); test: Herbicidal post-emergence action (B), 1280 g/ha; assay type: in vivo; conditions: one-leaf stage, rated after about 3 weeks vs untreated controls, 100% activity = the plants have died, 0% = like control plants
In short: as §2

SMILES | LOLRI, activity rated visually (%)
CCc1cc2scnc2nc1-c1ccc(F)cc1F [Example I-030] | 90
Fc1ccccc1-c1ccc2scnc2n1 [Example I-036, 5-(2-fluorophenyl)thiazolo[4,5-b]pyridine] | 100

system: Stellaria media (STEME); test: Herbicidal post-emergence action (B), 1280 g/ha; assay type: in vivo; conditions: not given
In short: as §2

SMILES | herbicidal effect STEME [%]
CCc1cc2scnc2nc1-c1ccc(F)cc1F [Example I-030] | 90
Fc1ccccc1-c1ccc2scnc2n1 [Example I-036, 5-(2-fluorophenyl)thiazolo[4,5-b]pyridine] | 100

system: Veronica persica (VERPE); test: Herbicidal post-emergence action (B), 1280 g/ha; assay type: in vivo; conditions: not given
In short: as §2

SMILES | herbicidal effect VERPE [%]
CCc1cc2scnc2nc1-c1ccc(F)cc1F [Example I-030] | 90

system: Alopecurus myosuroides (ALOMY); test: Herbicidal pre-emergence action (C), 320 g/ha; assay type: in vivo; conditions: ca. 3 weeks
In short: (§3)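 Seeds sown in sandy loam and covered with soil; compounds formulated as WP or EC were sprayed onto the covering soil as aqueous suspension/emulsion with 0.5% additive at 600 l water/ha. Pots kept in greenhouse; damage graded visually after ca. 3 weeks versus untreated controls (0% = as control, 100% = plants dead).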

SMILES | herbicidal effect ALOMY [%]
CCc1cc2scnc2nc1-c1ccc(F)cc1F [Example I-030] | 100
Fc1ccccc1-c1ccc2scnc2n1 [Example I-036, 5-(2-fluorophenyl)thiazolo[4,5-b]pyridine] | 100

system: Amaranthus retroflexus (AMARE); test: Herbicidal pre-emergence action (C), 320 g/ha; assay type: in vivo; conditions: ca. 3 weeks
In short: as §3

SMILES | herbicidal effect AMARE [%]
CCc1cc2scnc2nc1-c1ccc(F)cc1F [Example I-030] | 90
Fc1ccccc1-c1ccc2scnc2n1 [Example I-036, 5-(2-fluorophenyl)thiazolo[4,5-b]pyridine] | 100

system: Echinochloa crus-galli (ECHCG); test: Herbicidal pre-emergence action (C), 320 g/ha; assay type: in vivo; conditions: ca. 3 weeks
In short: as §3

SMILES | herbicidal effect ECHCG [%]
CCc1cc2scnc2nc1-c1ccc(F)cc1F [Example I-030] | 100
Fc1ccccc1-c1ccc2scnc2n1 [Example I-036, 5-(2-fluorophenyl)thiazolo[4,5-b]pyridine] | 100

system: Lolium rigidum (LOLRI); test: Herbicidal pre-emergence action (C), 320 g/ha; assay type: in vivo; conditions: ca. 3 weeks
In short: as §3

SMILES | herbicidal effect LOLRI [%]
CCc1cc2scnc2nc1-c1ccc(F)cc1F [Example I-030] | 100
Fc1ccccc1-c1ccc2scnc2n1 [Example I-036, 5-(2-fluorophenyl)thiazolo[4,5-b]pyridine] | 100

system: Setaria viridis (SETVI); test: Herbicidal pre-emergence action (C), 320 g/ha; assay type: in vivo; conditions: ca. 3 weeks
In short: as §3

SMILES | herbicidal effect SETVI [%]
CCc1cc2scnc2nc1-c1ccc(F)cc1F [Example I-030] | 100
Fc1ccccc1-c1ccc2scnc2n1 [Example I-036, 5-(2-fluorophenyl)thiazolo[4,5-b]pyridine] | 100

system: Veronica persica (VERPE); test: Herbicidal pre-emergence action (C), 320 g/ha; assay type: in vivo; conditions: ca. 3 weeks
In short: as §3

SMILES | herbicidal effect VERPE [%]
CCc1cc2scnc2nc1-c1ccc(F)cc1F [Example I-030] | 90
Fc1ccccc1-c1ccc2scnc2n1 [Example I-036, 5-(2-fluorophenyl)thiazolo[4,5-b]pyridine] | 90

system: Digitaria sanguinalis (DIGSA); test: Herbicidal pre-emergence action (C), 320 g/ha; assay type: in vivo; conditions: ca. 3 weeks
In short: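 Weed and crop seeds sown in sandy loam; WP or EC formulations applied pre-emergence to the soil surface as aqueous suspension/emulsion with 0.5% additive at 600 l water/ha. Greenhouse-grown under optimum conditions; damage visually scored after ca. 3 weeks versus untreated controls (0% = as control, 100% = plants dead).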

SMILES | herbicidal effect DIGSA [%]
CCc1cc2scnc2nc1-c1ccc(F)cc1F [Example I-030] | 100
Fc1ccccc1-c1ccc2scnc2n1 [Example I-036, 5-(2-fluorophenyl)thiazolo[4,5-b]pyridine] | 100
